The results in this text go back to ChEMBL document CHEMBL5053525, “Synthesis and antiviral effect of phosphamide modified vidarabine for treating HSV 1 infections” (Bioorg Med Chem Lett, 2021).

Active and inactive are the calls of the source. The calls are words filed in the database; no cut-off is given here.

Data set [1] deals with Human alphaherpesvirus 1. Kind of data set: Antiviral activity against HSV-1 infected in human Huh-7 cells assessed as inhibition of viral replication by measuring ICPO level at 10 uM pre-infected with viral particles for 2 hrs followed by compound treatment for 24 hrs by Western blot analysis. Type of data set: functional, organism-based.
The subject of data set [2] is Human alphaherpesvirus 1. As to the kind of experiment: Antiviral activity against HSV-1 infected in human HepG2 cells assessed as inhibition of viral replication by measuring ICPO level at 10 uM pre-infected with viral particles for 2 hrs followed by compound treatment for 24 hrs by Western blot analysis. Type of data set: functional, organism-based. A general note: A western blot detects proteins with antibodies after separation by electrophoresis.

Data set [3] deals with Human alphaherpesvirus 1. Kind of data set: Antiviral activity against HSV-1 infected in African green monkey Vero cells assessed as inhibition of viral replication by measuring ICPO level at 10 uM pre-infected with viral particles for 2 hrs followed by compound treatment for 24 hrs by Western blot analysis. Type of data set: functional, organism-based.
Data set [4] relates to Human alphaherpesvirus 1. Kind of data set: Antiviral activity against HSV-1 infected in human Huh-7 cells assessed as inhibition of viral replication by measuring ICPO level. Type of data set: functional, organism-based. The note with it: dose 0.1-1.6 µM.
Data set [5] relates to Human alphaherpesvirus 1. Kind of data set: Antiviral activity against GFP-expressing HSV-1 assessed as reduction in viral growth by fluorescence assay. Type of data set: functional, organism-based.
The next data set has as its system Huh-7. Kind of data set: Cytotoxicity against human Huh-7 cells assessed as effect on cell viability at 10 uM measured by MTT asay. Type of data set: cell-based. The conditions noted are these: huh-7, 10 µM.
Data set [6] has as its system Human alphaherpesvirus 1. As to the kind of experiment: Antiviral activity against HSV-1 infected in human Huh-7 cells assessed as reduction in plaque forming units at 1 uM measured after 48 hrs by virus titre method. Type of data set: functional.
Data set [7] concerns Human alphaherpesvirus 1. As to the kind of experiment: Antiviral activity against HSV-1 infected in human Huh-7 cells assessed as reduction in plaque forming units at 1 uM measured after 48 hrs by virus titre method relative to NTC. Type of data set: functional.

Turning to `CSCC[C@H](N[P@](=O)(OC[C@H]1O[C@@H](n2cnc3c(N)ncnc32)[C@@H](O)[C@@H]1O)Oc1ccccc1)C(=O)OC(C)C`, the inhibition result in the data set with Human alphaherpesvirus 1 [1] and in the data set on Human alphaherpesvirus 1 [2] was “Active” each time.
For `CC(C)OC(=O)[C@@H](NP(=O)(OC[C@H]1O[C@@H](n2cnc3c(N)ncnc32)[C@@H](O)[C@@H]1O)Oc1ccccc1)C(C)C` (stereo partly specified), the inhibition result in the data set on Human alphaherpesvirus 1 [1] and in the data set with Human alphaherpesvirus 1 [2] was “Active” in each case.
For `CC(C)OC(=O)[C@H](C)N[P@](=O)(OC[C@H]1O[C@@H](n2cnc3c(N)ncnc32)[C@@H](O)[C@@H]1O)Oc1ccccc1`, the inhibition result in the data set on Human alphaherpesvirus 1 [1] and in the data set on Human alphaherpesvirus 1 [2] was “Active” each time.
Regarding `CCCCCOC(=O)Nc1ncnc2c1ncn2[C@@H]1O[C@H](CO[P@@](=O)(N[C@@H](C)C(=O)OC(C)C)Oc2ccccc2)[C@@H](O)[C@@H]1O`, the inhibition entry in the data set on Human alphaherpesvirus 1 [1] and with Human alphaherpesvirus 1 [2] was “Active” throughout.
Regarding `CSCC[C@H](NP(=O)(OC[C@H]1O[C@@H](n2cnc3c(N)ncnc32)[C@@H](O)[C@@H]1O)Oc1ccccc1)C(=O)OC(C)C` (stereo partly specified), the inhibition entry in the data set on Human alphaherpesvirus 1 [1] and in the data set on Human alphaherpesvirus 1 [2] was “Active” each time.
`COC(=O)[C@@H](NP(=O)(OC[C@H]1O[C@@H](n2cnc3c(N)ncnc32)[C@@H](O)[C@@H]1O)Oc1ccccc1)C(C)C` (stereo partly specified): the inhibition result with Human alphaherpesvirus 1 [1] and in the data set with Human alphaherpesvirus 1 [2] was “Active” throughout.
On to `CC(C)OC(=O)CN[P@](=O)(OC[C@H]1O[C@@H](n2cnc3c(N)ncnc32)[C@@H](O)[C@@H]1O)Oc1ccccc1`, for which the inhibition entry with Human alphaherpesvirus 1 [1] and in the data set on Human alphaherpesvirus 1 [2] was “Active” in each case.
As for `CC(C)OC(=O)[C@H](C)NP(=O)(OC[C@H]1O[C@@H](n2cnc3c(N)ncnc32)[C@@H](O)[C@@H]1O)Oc1ccccc1` (stereo partly specified), the inhibition entry in the data set with Human alphaherpesvirus 1 [1] and in the data set on Human alphaherpesvirus 1 [2] was “Active” each time.
For the molecule `CC(C)OC(=O)[C@@H](N[P@](=O)(OC[C@H]1O[C@@H](n2cnc3c(N)ncnc32)[C@@H](O)[C@@H]1O)Oc1ccccc1)C(C)C`, the inhibition entry in the data set on Human alphaherpesvirus 1 [1] and in the data set on Human alphaherpesvirus 1 [2] was “Active” in each case.
Usually EC50 stands for the midpoint of the concentration-response curve. As to `CC(C)OC(=O)[C@H](Cc1ccccc1)N[P@](=O)(OC[C@H]1O[C@@H](n2cnc3c(N)ncnc32)[C@@H](O)[C@@H]1O)Oc1ccccc1`, the inhibition entry in the data set on Human alphaherpesvirus 1 [3] was “inactive”. Besides, the inhibition entry in the data set on Human alphaherpesvirus 1 [1] and with Human alphaherpesvirus 1 [2] was “Active” each time. Further, in the data set with Human alphaherpesvirus 1 [4], the inhibition entry is “Dose-dependent effect”. Further, in the data set on Human alphaherpesvirus 1 [5], the EC50 was 1060 nM. The Activity entry in the data set with Huh-7 was “Non-Toxic”.
In the case of `NC(=O)c1ncn([C@@H]2O[C@H](CO)[C@@H](O)[C@H]2O)n1` [RIBAVIRIN], in the data set on Human alphaherpesvirus 1 [6], the Activity is given as 100 PFU/ml.
For `CC(C)C[C@H](N[P@](=O)(OC[C@H]1O[C@@H](n2cnc3c(N)ncnc32)[C@@H](O)[C@@H]1O)Oc1ccccc1)C(=O)OC(C)C`, the inhibition entry in the data set with Human alphaherpesvirus 1 [3] was “inactive”. Also, the inhibition result with Human alphaherpesvirus 1 [1] and with Human alphaherpesvirus 1 [2] was “Active” each time. Also, in the data set on Human alphaherpesvirus 1 [4], the inhibition result was “Dose-dependent effect”. For the same molecule, in the data set on Human alphaherpesvirus 1 [6], the result was inactive. Besides, in the data set with Human alphaherpesvirus 1 [7], the “fold change (FC)” value worked out at 1000. The 50% effective concentration (EC50) in the data set with Human alphaherpesvirus 1 [5] came to 526 nM. For the same molecule, the Activity entry in the data set with Huh-7 is recorded as “Non-Toxic”.
In the case of `CC(C)OC(=O)[C@H](Cc1c[nH]c2ccccc12)N[P@](=O)(OC[C@H]1O[C@@H](n2cnc3c(N)ncnc32)[C@@H](O)[C@@H]1O)Oc1ccccc1`, the inhibition entry with Human alphaherpesvirus 1 [1] and with Human alphaherpesvirus 1 [2] was “Active” each time.
Turning to `Nc1nc2c(ncn2COC(CO)CO)c(=O)[nH]1` [GANCICLOVIR], the EC50 with Human alphaherpesvirus 1 [5] is less than 100 nM.
As for `CC(C)C[C@H](NP(=O)(OC[C@H]1O[C@@H](n2cnc3c(N)ncnc32)[C@@H](O)[C@@H]1O)Oc1ccccc1)C(=O)OC(C)C` (stereo partly specified), the inhibition entry with Human alphaherpesvirus 1 [3] was “inactive”. Moreover, the inhibition result in the data set on Human alphaherpesvirus 1 [1] and with Human alphaherpesvirus 1 [2] was “Active” each time. For the same molecule, the inhibition entry in the data set with Human alphaherpesvirus 1 [4] is “Dose-dependent effect”. For the same molecule, the concentration for a half-maximal effect (EC50) with Human alphaherpesvirus 1 [5] was 1180 nM. The Activity entry with Huh-7 was “Non-Toxic”.
Regarding `COC(=O)[C@H](NP(=O)(OC[C@H]1O[C@@H](n2cnc3c(N)ncnc32)[C@@H](O)[C@@H]1O)Oc1ccccc1)C(C)C` (stereo partly specified), the inhibition entry with Human alphaherpesvirus 1 [1] and in the data set on Human alphaherpesvirus 1 [2] was “Active” throughout.
Regarding `CC(C)OC(=O)[C@@H](C)N[P@](=O)(OC[C@H]1O[C@@H](n2cnc3c(N)ncnc32)[C@@H](O)[C@@H]1O)Oc1ccccc1`, the inhibition entry in the data set with Human alphaherpesvirus 1 [1] and in the data set on Human alphaherpesvirus 1 [2] was “Active” each time.
